# ChEMBL document CHEMBL1201862, “PubChem BioAssay data set” (2004)
#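 Growth conditions: 96-well plates. Treatment: test compound, 48 hours, 5 concentrations. Analysis: linear interpolation between bracketing concentrations; unreached endpoints set to highest concentration. At the GI50, growth is halved.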 Calls of active or inactive are those of the source. Cut-off read from the data, not from the text of the source: active = GI50 up to about 1.1 µM and inactive = higher.
# Tests used:
# Experiment in all cases: growth of human tumour cells (NCI), 48 h
# NCI-H23 = tested on: NCI-H23
# ACHN = tested on: ACHN
# Hs-578T = tested on: Hs-578T
# SK-MEL-28 = tested on: SK-MEL-28
# MDA-MB-435 = tested on: MDA-MB-435
# IGROV-1 = tested on: IGROV-1
# 786-0 = tested on: 786-0
# UO-31 = tested on: UO-31
# OVCAR-8 = tested on: OVCAR-8
# NCI/ADR-RES = tested on: NCI/ADR-RES
# NCI-H522 = tested on: NCI-H522
# PC-3 = tested on: PC-3
# SR = tested on: SR
# A498 = tested on: A498
# CAKI-1 = tested on: CAKI-1
# Malme-3M = tested on: Malme-3M
# SNB-19 = tested on: SNB-19
# LOX IMVI = tested on: LOX IMVI
# M14 = tested on: M14
# SF-295 = tested on: SF-295
# HT-29 = tested on: HT-29
# MCF7 = tested on: MCF7
# MDA-N = tested on: MDA-N
# COLO 205 = tested on: COLO 205
# HL-60 = tested on: HL-60
# K562 = tested on: K562
# UACC-257 = tested on: UACC-257
# EKVX = tested on: EKVX
# CCRF-CEM = tested on: CCRF-CEM
# A549 = tested on: A549
# T47D = tested on: T47D
# SK-MEL-2 = tested on: SK-MEL-2
# HCC 2998 = tested on: HCC 2998
# SW-620 = tested on: SW-620
# OVCAR-3 = tested on: OVCAR-3
# BT-549 = tested on: BT-549
# OVCAR-4 = tested on: OVCAR-4
# U-251 = tested on: U-251
# SF-268 = tested on: SF-268
# HCT-15 = tested on: HCT-15
# NCI-H460 = tested on: NCI-H460
# HCT-116 = tested on: HCT-116
# SF-539 = tested on: SF-539
# DU-145 = tested on: DU-145
# MOLT-4 = tested on: MOLT-4
# OVCAR-5 = tested on: OVCAR-5
# KM12 = tested on: KM12
# UACC-62 = tested on: UACC-62
# RPMI-8226 = tested on: RPMI-8226
# SK-OV-3 = tested on: SK-OV-3
# HOP-62 = tested on: HOP-62
# SK-MEL-5 = tested on: SK-MEL-5
# SN12C = tested on: SN12C
# RXF 393 = tested on: RXF 393
# NCI-H226 = tested on: NCI-H226
# HOP-92 = tested on: HOP-92
# MDA-MB-231 = tested on: MDA-MB-231
# TK-10 = tested on: TK-10
structure (smiles),measurement,setting,value
O=C(Nc1ccccc1F)c1cc2ccc(O)cc2o/c1=N\c1cccc(C(F)(F)F)c1,GI50,NCI-H23,1.76 µM (inactive)
same,GI50,ACHN,3.57 µM (inactive)
same,GI50,Hs-578T,1.94 µM (inactive)
same,GI50,SK-MEL-28,3.82 µM (inactive)
same,GI50,MDA-MB-435,3.51 µM (inactive)
same,GI50,IGROV-1,2.08 µM (inactive)
same,GI50,786-0,4.57 µM (inactive)
same,GI50,UO-31,3.85 µM (inactive)
same,GI50,OVCAR-8,2.18 µM (inactive)
same,GI50,NCI/ADR-RES,3.22 µM (inactive)
same,GI50,NCI-H522,2 µM (inactive)
same,GI50,PC-3,3.76 µM (inactive)
same,GI50,SR,3.31 µM (inactive)
same,GI50,A498,7.4 µM (inactive)
same,GI50,CAKI-1,3.79 µM (inactive)
same,GI50,Malme-3M,2.69 µM (inactive)
same,GI50,SNB-19,5.87 µM (inactive)
same,GI50,LOX IMVI,2.69 µM (inactive)
same,GI50,M14,5.18 µM (inactive)
same,GI50,SF-295,4.99 µM (inactive)
same,GI50,HT-29,32.1 µM (inactive)
same,GI50,MCF7,2.94 µM (inactive)
same,GI50,MDA-N,3.73 µM (inactive)
same,GI50,COLO 205,18.6 µM (inactive)
same,GI50,HL-60,1.66 µM (inactive)
same,GI50,K562,2.85 µM (inactive)
same,GI50,UACC-257,4.02 µM (inactive)
same,GI50,EKVX,3.76 µM (inactive)
same,GI50,CCRF-CEM,1.92 µM (inactive)
same,GI50,A549,3.18 µM (inactive)
same,GI50,T47D,2.59 µM (inactive)
same,GI50,SK-MEL-2,4.36 µM (inactive)
same,GI50,HCC 2998,8.2 µM (inactive)
same,GI50,SW-620,3.08 µM (inactive)
same,GI50,OVCAR-3,3.77 µM (inactive)
same,GI50,BT-549,2.67 µM (inactive)
same,GI50,OVCAR-4,2.63 µM (inactive)
same,GI50,U-251,3.73 µM (inactive)
same,GI50,SF-268,2.82 µM (inactive)
same,GI50,HCT-15,3.59 µM
same,GI50,NCI-H460,3.22 µM (inactive)
same,GI50,HCT-116,2.85 µM (inactive)
same,GI50,SF-539,3.9 µM (inactive)
same,GI50,DU-145,4.04 µM (inactive)
same,GI50,MOLT-4,2.94 µM (inactive)
same,GI50,OVCAR-5,26.5 µM (inactive)
same,GI50,KM12,3.71 µM (inactive)
same,GI50,UACC-62,3.81 µM (inactive)
same,GI50,RPMI-8226,2.05 µM (inactive)
same,GI50,SK-OV-3,3.78 µM (inactive)
same,GI50,HOP-62,7.91 µM (inactive)
same,GI50,SK-MEL-5,1.94 µM (inactive)
[B].c1ccc([Si](OCCN2CC2)(c2ccccc2)c2ccccc2)cc1,GI50,NCI-H23,15.6 µM (inactive)
same,GI50,ACHN,14.8 µM (inactive)
same,GI50,Hs-578T,12.4 µM (inactive)
same,GI50,MDA-MB-435,13.8 µM (inactive)
same,GI50,IGROV-1,12.9 µM (inactive)
same,GI50,SN12C,14.3 µM (inactive)
same,GI50,786-0,14.2 µM (inactive)
same,GI50,UO-31,15.2 µM (inactive)
same,GI50,OVCAR-8,16.6 µM (inactive)
same,GI50,NCI/ADR-RES,14.1 µM (inactive)
same,GI50,NCI-H522,12.9 µM (inactive)
same,GI50,PC-3,13.5 µM (inactive)
same,GI50,RXF 393,4.46 µM (inactive)
same,GI50,CAKI-1,16.3 µM (inactive)
same,GI50,Malme-3M,14.9 µM (inactive)
same,GI50,SNB-19,0.436 µM (active)
same,GI50,LOX IMVI,14.5 µM (inactive)
same,GI50,M14,15.9 µM (inactive)
same,GI50,SF-295,14.3 µM (inactive)
same,GI50,HT-29,14 µM (inactive)
same,GI50,MCF7,14.5 µM (inactive)
same,GI50,MDA-N,14.9 µM (inactive)
same,GI50,COLO 205,12.2 µM (inactive)
same,GI50,NCI-H226,16 µM (inactive)
same,GI50,HL-60,27.1 µM (inactive)
same,GI50,K562,8.3 µM (inactive)
same,GI50,UACC-257,15.3 µM (inactive)
same,GI50,EKVX,12.8 µM (inactive)
same,GI50,CCRF-CEM,18.7 µM (inactive)
same,GI50,A549,11.9 µM (inactive)
same,GI50,T47D,15.6 µM (inactive)
same,GI50,SK-MEL-2,0.557 µM (active)
same,GI50,HCC 2998,13.6 µM (inactive)
same,GI50,SW-620,14.7 µM (inactive)
same,GI50,OVCAR-3,16.4 µM (inactive)
same,GI50,BT-549,17.5 µM (inactive)
same,GI50,OVCAR-4,10.8 µM (inactive)
same,GI50,U-251,14 µM (inactive)
same,GI50,HOP-92,2.36 µM (inactive)
same,GI50,MDA-MB-231,14.9 µM (inactive)
same,GI50,SF-268,11 µM (inactive)
same,GI50,HCT-15,7.66 µM
same,GI50,NCI-H460,12.5 µM (inactive)
same,GI50,HCT-116,14.6 µM (inactive)
same,GI50,SF-539,14 µM (inactive)
same,GI50,DU-145,13.7 µM (inactive)
same,GI50,MOLT-4,14.3 µM (inactive)
same,GI50,OVCAR-5,14.6 µM (inactive)
same,GI50,KM12,15.6 µM (inactive)
same,GI50,UACC-62,14.2 µM (inactive)
same,GI50,TK-10,15.5 µM (inactive)
same,GI50,RPMI-8226,13.9 µM (inactive)
same,GI50,SK-OV-3,14.4 µM (inactive)
same,GI50,HOP-62,14.9 µM (inactive)
same,GI50,SK-MEL-5,15.8 µM (inactive)
